In US9475028B2 (priority 2006, dated 2016):
Entries after “also recorded” stand apart in the source; their conditions may differ.

Test system: A549 (Lung Mesothelial Carcinoma) cells
Type: cell-based

## C60(OH)n (n˜1-48) [PHF]
  observed damage to cells: restricted to the top layer of cells; also recorded: damage of multiple layers of cells
